According to patent US12286423B2, “Antiviral 1,3-di-oxo-indene compounds” (Novartis AG, priority 2020, dated 2025):

What was measured:
Assay type in all cases: cell-based
[1] = tested on: C15_C3 REPLICON; assay: C15_C3 replicon assay
[2] = tested on: HRV A16; assay: HRV A16 CPE inhibition assay; settings: Human rhinovirus sp.; HRV A16, cytopathic effect inhibition
Experimental: (§1) Bioactivity of the Compounds of the Invention was Determined Using the Following Methods. Determination of Drug Efficacy Against Picornaviruses Using Cytopathic Effect (CPE) Inhibition Assay
(§2) In the assay, HeLa (human cervical cancer cells), MRC-5 (human fetal lung fibroblast cells), and RD cells (derived from human rhabdomyosarcoma) were employed. For comparison, ribavirin (Riv), Pleconaril (pleco), and […] (BTA) were used as controls. Reagents were dissolved at a concentration of 10-40 mg/ml in 100% dimethyl sulfoxide (DMSO). Water-soluble reagents were dissolved in PBS (−) solution and stored at −20° C. On the day of the experiment, they were used in 3 fold to 5 fold concentrations in such a manner that the concentration of dimethyl sulfoxide in each well was between 0.5% and 1%.
(§3) Pharmaceutical efficacy was determined using a virus-induced cytopathic effect (CPE) inhibition assay. In this regard, after cells suitable for viruses were grown in 96-well plates, dilutions of viruses in DME supplemented with 2% FBS (DME/2% FBS) or MEM supplemented with 2% FBS (MEM/2% FBS) were inoculated in an amount of […] with a concentration corresponding to 100 CCID50 (50% cell culture infective dose) into each well of the plates, and incubated for 30 min-1 hr at 33° C. or 37° C. to allow the viruses to adsorb onto the cells. The culture medium was removed before aliquots of drug dilutions with various concentrations were added in an amount of 100 μl to each well. While HRV (human rhinovirus) was grown at 33° C., the other viruses were incubated in a 37° C. CO2 incubator for 2-3 days. Alternatively, the cells were cultured for 2-3 days without removal of the medium after they were added with 50 μl of each drug dilution having a 2-fold higher concentration and then with 50 μl of the virus dilution. Viruses were incubated in host HeLa cells at 37° C. for 2-3 days in DME/2% or MEM/2% FBS.
(§4) For HeLa cells, the drugs were measured for EC50 (50% maximal effective concentration), which is the concentration of a drug inducing a response halfway between the baseline and maximum, using an MTT assay. With regard to RD and MRC-5 cells, CPE was determined using FDA (Fluorescein diacetate) or MTT. In order to determine the effect of drug toxicity on efficacy results, at the time of inoculation with the virus, mock-infection was also included. A virus-free medium was added to a cell culture, which was then subjected to the same treatment as the mock-infected cells inoculated with the virus. That is, the medium was removed after one hour of incubation, and dilutions of drugs in the medium were added once more. Following incubation for 2-3 days, the cells were observed under a microscope and the drugs were determined for CC50 (50% cytotoxic concentration) at which 50% of the cells were killed, using an MTT assay in which counts of viable cells in mock-infected wells containing drugs were compared to those of viable cells in control wells containing no drugs. In an FDA hydrolysis assay, FDA was added to each well after removal of the medium, and incubated for 20-30 min before fluorescence intensity was measured using a spectrofluorometer to determine CPE in the same manner as in MTT.
(§5) In addition, antiviral effects can be calculated using Mathematical Formula 2 below: Antiviral Effect=[A(Drug/Virus)−A(Virus Control)/A(Cell control)−A(Virus Control)]
(§6) If the survival rate is 100%, its antiviral effect is 100% whereas if the survival rate is 0%, its antiviral effect is none. […]
(§7) Specifically, cells grown to confluence in 96-well plates were infected with 100 50% cell culture infected doses (CCID50) of virus. After an adsorption period of 2 hrs at 37° C., the virus was removed and serial dilutions of the compounds were added. […] After removal of the medium, 90 μl of a culture medium and 10 μl of MTS-phenazine methosulfate (Promega, Leiden, The Netherlands) were added to each well. […]

[3] = tested on: HRV B14; assay: HRV B14 CPE inhibition assay; settings: Human rhinovirus sp.; HRV B14, cytopathic effect inhibition
Experimental: as §1, §2, §3, §4, §5, §6, §7

[4] = Cytotoxicity (CC50) in mock-infected cells, MTT assay; settings: human, HeLa cells (mock-infected), 50% cytotoxic concentration, read-out: CYTOTOX (CC50 μM)
Experimental: as §4
That is, the survival rate (% survival) of mock-infected cells for cytotoxicity measurement was calculated using the Mathematical Formula 1 below: Cell Drug=Survival by [A(Drug)−A(Background solution)/A(Cell control)−A(Background×100% Solution)]
While 100% cell survival means no cytotoxicity of the drug, the highest cytotoxicity is reflected by 0% cell survival. The 50% cytotoxic concentration was defined as the concentration required to reduce the cell number by 50%. This concentration of the drug is represented as CC50. Higher values mean lower cytotoxicity. […]
In Mathematical Formulae 3 and 4 above, • OD (CC) represents the OD of the background cell culture that is neither induced by a virus nor treated by chemical, • OD (VC) represents the OD of the control cell culture that is induced by a virus but not treated by chemical, • OD (Virus+Compound) represents the OD of the cell culture infected by a virus that has been treated with a concentrated compound, • OD (Compound) represents the OD of the cell culture that has been treated with a concentrated compound only, and • OD (Blank) represents the OD of the well to which only the cell culture has been added.
The effective concentration (EC50) represents the concentration of a drug at which 50% of cells are allowed to survive by CPE of an induced virus, and the cytotoxicity concentration (CC50) represents the concentration of a drug at which a compound has killed 50% of cells, and they were calculated by the logarithmic interpolation.

[5] = tested on: HRV A29; assay: HRV A29 CPE inhibition assay; settings: Human rhinovirus sp.; HRV A29, cytopathic effect inhibition
Experimental: as §1, §2, §3, §4, §5, §6, §7

Row | SMILES | EC50 [1] | EC50 [2] | EC50 [3] | CC50 [4] | EC50 [5]
1 | Cc1cc(S(=O)(=O)N2CC[C@H](N(C)C)C2)[nH]c1C(=O)NC12C(=O)c3c(N)cccc3C1(O)Oc1cc([C@H]3C[C@@H]3C)ccc12 (mixture of isomers) [Example 11, N-(1-amino-4b-hydroxy-7-((1S,2S)-2-methylcyclopropyl)-10-oxo-4b,10-dihydro-9bH-indeno[1,2-b]benzofuran-9b-yl)-5-(((S)-3-(dimethylamino)pyrrolidin-1-yl)sulfonyl)-3-methyl-1H-pyrrole-2-carboxamide] | 2.54 µM | 0.023 µM | 0.016 µM | 12.1 µM | 
2 | Cc1c(S(C)(=O)=O)c[nH]c1C(=O)N[C@]12C(=O)c3c(N)cccc3[C@@]1(O)Oc1cc([C@@H]3C[C@H]3C)ccc12 [Example 1, N-((4bR,9bR)-1-amino-4b-hydroxy-7-((1R,2R)-2-methylcyclopropyl)-10-oxo-4b,10-dihydro-9bH-indeno[1,2-b]benzofuran-9b-yl)-3-methyl-4-(methylsulfonyl)-1H-pyrrole-2-carboxamide] | 4 µM | 0.228 µM | 0.016 µM | 34.7 µM | 0.071 µM
3 | Cc1[nH]c(C(=O)NC23C(=O)c4c(N)cccc4C2(O)Oc2cc(C(C)C)ccc23)c(C)c1S(N)(=O)=O (stereo not shown) [Example 25, N-(1-amino-4b-hydroxy-7-isopropyl-10-oxo-4b,10-dihydro-9bH-indeno[1,2-b]benzofuran-9b-yl)-3,5-dimethyl-4-sulfamoyl-1H-pyrrole-2-carboxamide] | 2.04 µM | 0.14 µM | 0.016 µM | 27 µM | 
4 | Cc1cc(S(=O)(=O)N2CCN(C)CC2)[nH]c1C(=O)NC12C(=O)c3c(N)cccc3C1(O)Oc1cc([C@H]3C[C@@H]3C)ccc12 (mixture of isomers) [Example 9, N-(1-Amino-4b-hydroxy-7-((trans)-2-methylcyclopropyl)-10-oxo-4b,10-dihydro-9bH-indeno[1,2-b]benzofuran-9b-yl)-3-methyl-5-((4-methylpiperazin-1-yl)sulfonyl)-1H-pyrrole-2-carboxamide] | 1.09 µM | 0.02 µM | 0.016 µM | 25.6 µM | 
5 | CCC(C)c1ccc2c(c1)OC1(O)c3cccc(N)c3C(=O)C21NC(=O)c1[nH]cc(S(C)(=O)=O)c1C (stereo not shown) [Example 23, N-(1-amino-7-(sec-butyl)-4b-hydroxy-10-oxo-4b,10-dihydro-9bH-indeno[1,2-b]benzofuran-9b-yl)-3-methyl-4-(methylsulfonyl)-1H-pyrrole-2-carboxamide] | 0.633 µM | 0.071 µM | 0.016 µM | 22.4 µM | 
6 | Cc1c(C(=O)NC23C(=O)c4c(N)cccc4C2(O)Oc2cc(C(C)C)ccc23)[nH]c(S(=O)(=O)NCCN(C)C)c1C (stereo not shown) [Example 4, N-(1-amino-4b-hydroxy-7-isopropyl-10-oxo-4b,10-dihydro-9bH-indeno[1,2-b]benzofuran-9b-yl)-5-(N-(2-(dimethylamino)ethyl)sulfamoyl)-3,4-dimethyl-1H-pyrrole-2-carboxamide] | 2.39 µM | 0.056 µM | 0.016 µM | 8.58 µM | 
7 | Cc1c(S(C)(=O)=O)c[nH]c1C(=O)NC12C(=O)c3c(N)cccc3C1(O)Oc1cc([C@@H]3C[C@@H]3C)ccc12 (stereo partly drawn) [Example 16, N-(1-amino-4b-hydroxy-7-((1R,2S)-2-methylcyclopropyl)-10-oxo-4b,10-dihydro-9bH-indeno[1,2-b]benzofuran-9b-yl)-3-methyl-4-(methylsulfonyl)-1H-pyrrole-2-carboxamide] | 1.82 µM | 0.199 µM | 0.016 µM | 37.7 µM | 0.104 µM
8 | C[C@H](O)[C@@H](C(=O)NC12C(=O)c3c(N)cccc3C1(O)Oc1cc([C@H](C)C3CC3)ccc12)N(C)C (stereo partly drawn) [Example 10, (2S,3S)—N-(1-amino-7-((R)-1-cyclopropylethyl)-4b-hydroxy-10-oxo-4b,10-dihydro-9bH-indeno[1,2-b]benzofuran-9b-yl)-2-(dimethylamino)-3-hydroxybutanamide] | 0.632 µM | 0.661 µM | 0.016 µM | 29.2 µM | 
9 | Cc1c(S(C)(=O)=O)c[nH]c1C(=O)NC12C(=O)c3c(N)cccc3C1(O)Oc1cc(C3CCC3C)ccc12 (stereo not shown) [Example 7, N-(1-amino-4b-hydroxy-7-(2-methylcyclobutyl)-10-oxo-4b,10-dihydro-9bH-indeno[1,2-b]benzofuran-9b-yl)-3-methyl-4-(methylsulfonyl)-1H-pyrrole-2-carboxamide] | 1.62 µM | 0.065 µM |  | 12 µM | 
10 | Cc1c(S(C)(=O)=O)c[nH]c1C(=O)NC12C(=O)c3c(N)cccc3C1(O)Oc1cc([C@]3(C)C[C@@H]3C)ccc12 (stereo partly drawn) [Example 6, N-(1-amino-7-((1R,2S)-1,2-dimethylcyclopropyl)-4b-hydroxy-10-oxo-4b,10-dihydro-9bH-indeno[1,2-b]benzofuran-9b-yl)-3-methyl-4-(methylsulfonyl)-1H-pyrrole-2-carboxamide] | 1.18 µM | 0.046 µM | 0.016 µM | 19.1 µM | 
11 | C[C@H](c1ccc2c(c1)O[C@]1(O)c3cccc(N)c3C(=O)[C@]21NC(=O)[C@H]([C@H](C)O)N(C)C)C1CC1 [Example 15, (2S,3S)—N-((4bR,9bR)-1-amino-7-((S)-1-cyclopropylethyl)-4b-hydroxy-10-oxo-4b,10-dihydro-9bH-indeno[1,2-b]benzofuran-9b-yl)-2-(dimethylamino)-3-hydroxybutanamide] | 0.264 µM | 0.213 µM | 0.016 µM | 45.2 µM | 
12 | C[C@@H]1C[C@@H]1c1ccc2c(c1)O[C@]1(O)c3cccc(N)c3C(=O)[C@]21NC(=O)CN1CCC1 [Example 2, N-((4bR,9bR)-1-amino-4b-hydroxy-7-((1S,2R)-2-methylcyclopropyl)-10-oxo-4b,10-dihydro-9bH-indeno[1,2-b]benzofuran-9b-yl)-2-(azetidin-1-yl)acetamide] | 0.853 µM | 0.092 µM | 0.016 µM | 27.3 µM | 
